Measured values from ChEMBL document CHEMBL3525908, “Chronic doxorubicin cardiotoxicity modulates cardiac cytochrome P450-mediated arachidonic acid metabolism in rats” (Drug Metab Dispos, 2012).

Columns and labels:
Rattus norvegicus [1] = experiment: Toxicity in Sprague-Dawley rat assessed as CYP4F1 gene expression in liver administered as cumulative dose of 15 mg/kg, ip divided into 6 injections for 2 weeks followed by compound washout period of 14 days by RT-PCR analysis relative to control; format: organism-based; set-up: dose 15 mg/kg, route intraperitoneal; conditions: in vivo, 336 h
Rattus norvegicus [2] = experiment: Toxicity in Sprague-Dawley rat assessed as CYP4F4 gene expression in liver administered as cumulative dose of 15 mg/kg, ip divided into 6 injections for 2 weeks followed by compound washout period of 14 days by RT-PCR analysis relative to control; format: organism-based; set-up: dose 15 mg/kg, route intraperitoneal; conditions: in vivo, 336 h
Rattus norvegicus [3] = experiment: Toxicity in Sprague-Dawley rat assessed as CYP1A1 gene expression in kidney administered as cumulative dose of 15 mg/kg, ip divided into 6 injections for 2 weeks followed by compound washout period of 14 days by RT-PCR analysis relative to control; format: organism-based; set-up: dose 15 mg/kg, route intraperitoneal; conditions: in vivo, 336 h
Rattus norvegicus [4] = experiment: (§1) Induction of omega-1 hydroxylase-mediated arachidonic acid metabolism in Sprague-Dawley rat heart microsomes assessed as 19-HETE formation administered as cumulative dose of 15 mg/kg, ip divided into 6 injections for 2 weeks followed by compound washout period of 14 days by LC-ESI-MS analysis relative to control; format: ADME, organism-based; set-up: dose 15 mg/kg, route intraperitoneal; conditions: 336 h
Rattus norvegicus [5] = experiment: Cardiotoxicity in Sprague-Dawley rat assessed as increase in sEH activity in heart cytosol administered as cumulative dose of 15 mg/kg, ip divided into 6 injections for 2 weeks followed by compound washout period of 14 days by RT-PCR analysis relative to control; format: toxicity, organism-based; set-up: dose 15 mg/kg, route intraperitoneal; conditions: 336 h
H9c2 = experiment: Cytotoxicity against rat H9c2 cells assessed as reduction in BNP mRNA expression at 1 uM after 6 hrs in presence of HET0016; format: cell-based; conditions: h9c2, 6 h
Rattus norvegicus [6] = experiment: as §1, with “CYP450-mediated” for “omega-1 hydroxylase-mediated”, “11,12-EET” for “19-HETE”; format: ADME, organism-based; set-up: dose 15 mg/kg, route intraperitoneal; conditions: 336 h
Rattus norvegicus [7] = experiment: as §1, with “CYP450-mediated” for “omega-1 hydroxylase-mediated”, “14,15-EET” for “19-HETE”; format: ADME, organism-based; set-up: dose 15 mg/kg, route intraperitoneal; conditions: 336 h
Rattus norvegicus [8] = experiment: as §1, with “epoxygenase-mediated” for “omega-1 hydroxylase-mediated”, “EET/DHET” for “19-HETE”; format: ADME, organism-based; set-up: dose 15 mg/kg, route intraperitoneal; conditions: 336 h
Rattus norvegicus [9] = experiment: Toxicity in Sprague-Dawley rat assessed as sEH gene expression in kidney administered as cumulative dose of 15 mg/kg, ip divided into 6 injections for 2 weeks followed by compound washout period of 14 days by RT-PCR analysis; format: organism-based; set-up: dose 15 mg/kg, route intraperitoneal; conditions: in vivo, 336 h
Rattus norvegicus [10] = experiment: Toxicity in Sprague-Dawley rat assessed as CYP2E1 gene expression in liver administered as cumulative dose of 15 mg/kg, ip divided into 6 injections for 2 weeks followed by compound washout period of 14 days by RT-PCR analysis relative to control; format: organism-based; set-up: dose 15 mg/kg, route intraperitoneal; conditions: in vivo, 336 h
Rattus norvegicus [11] = experiment: Toxicity in Sprague-Dawley rat assessed as CYP4A3 gene expression in liver administered as cumulative dose of 15 mg/kg, ip divided into 6 injections for 2 weeks followed by compound washout period of 14 days by RT-PCR analysis relative to control; format: organism-based; set-up: dose 15 mg/kg, route intraperitoneal; conditions: in vivo, 336 h
Rattus norvegicus [12] = experiment: Cardiotoxicity in Sprague-Dawley rat assessed as increase in IL-6 gene expression level administered as cumulative dose of 15 mg/kg, ip divided into 6 injections for 2 weeks followed by compound washout period of 14 days by RT-PCR analysis relative to control; format: toxicity, organism-based; set-up: dose 15 mg/kg, route intraperitoneal; conditions: in vivo, 336 h
CYP4A3 = experiment: Cardiotoxicity in Sprague-Dawley rat assessed as increase in CYP4A3 gene expression level administered as cumulative dose of 15 mg/kg, ip divided into 6 injections for 2 weeks followed by compound washout period of 14 days by RT-PCR analysis relative to control; format: toxicity, organism-based; set-up: dose 15 mg/kg, route intraperitoneal; conditions: heart

COc1cccc2c1C(=O)c1c(O)c3c(c(O)c1C2=O)C[C@@](O)(C(=O)CO)C[C@@H]3O[C@H]1C[C@H](N)[C@H](O)[C@H](C)O1 [DOXORUBICIN] was tested, and the Activity (Rattus norvegicus [1]) was “Non-toxic”, the Activity (Rattus norvegicus [2]) was “Non-toxic” and the Activity (Rattus norvegicus [3]) was “Non-toxic”. For the same compound, the Activity (Rattus norvegicus [4]) was “Non-toxic”, the Ratio (Rattus norvegicus [5]) was 1.3 and the Activity (H9c2) was “Toxic”. For the same compound, the Activity (Rattus norvegicus [6]) was “Active”, the Activity (Rattus norvegicus [7]) was “Active” and the Activity (Rattus norvegicus [8]) was “Toxic”. For the same compound, the Activity (Rattus norvegicus [9]) was “Non-toxic”, the Activity (Rattus norvegicus [10]) was “Non-toxic” and the Activity (Rattus norvegicus [11]) was “Non-toxic”. It also gave a Ratio (Rattus norvegicus [12]) of 1.8 and a fold induction at 336 h (CYP4A3) of 2.
